Columns and labels:
Format in all cases: cell-based
[1] = target: T1, human muscarinic M4 receptor (Homo sapiens, UniProt P08173); assay: Alphascreen Surefire phospho-ERK1/2 functional assay, M4; conditions: for EC50: CHO cells stably expressing human M4, agonist 5 min, 37° C., read-out: pEC50 M4 (converted); for Emax: CHO, read-out: % Emax cf. ACh, M4
T1 construct: expressed in transfected cells
T1 sequence (P08173 1-479): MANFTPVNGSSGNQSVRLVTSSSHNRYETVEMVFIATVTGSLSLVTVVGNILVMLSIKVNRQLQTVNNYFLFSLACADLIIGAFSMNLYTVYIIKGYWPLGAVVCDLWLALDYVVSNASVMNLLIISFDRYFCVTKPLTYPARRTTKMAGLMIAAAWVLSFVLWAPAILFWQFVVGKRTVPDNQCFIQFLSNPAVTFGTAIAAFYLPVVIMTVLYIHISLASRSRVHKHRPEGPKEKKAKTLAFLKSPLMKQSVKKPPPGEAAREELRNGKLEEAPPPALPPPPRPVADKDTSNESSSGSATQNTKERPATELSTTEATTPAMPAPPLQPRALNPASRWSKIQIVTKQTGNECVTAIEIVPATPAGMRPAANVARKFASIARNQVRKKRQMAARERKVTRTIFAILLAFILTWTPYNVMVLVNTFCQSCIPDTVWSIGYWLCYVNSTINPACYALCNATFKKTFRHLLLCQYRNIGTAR
Experimental: (§1) ERK1/2 phosphorylation is a downstream consequence of both Gq/11 and Gi/o protein coupled receptor activation, making it highly suitable for the assessment of M1, M3 (Gq/11 coupled) and M2, M4 receptors (Gi/o coupled), rather than using different assay formats for different receptor subtypes. CHO cells stably expressing the human muscarinic M1, M2, M3 or M4 receptor were plated (25K/well) onto 96-well tissue culture plates in MEM-alpha+10% dialysed FBS. Once adhered, cells were serum-starved overnight. Agonist stimulation was performed by the addition of 5 μL agonist to the cells for 5 min (37° C.). Media was removed and 50 μL of lysis buffer added. After 15 min, a 4 μL sample was transferred to 384-well plate and 7 μL of detection mixture added. Plates were incubated for 2 h with gentle agitation in the dark and then read on a PHERAstar plate reader.
(§2) pEC50 and Emax figures were calculated from the resulting data for each receptor subtype.

[2] = target: T2, human muscarinic M1 receptor (Homo sapiens, UniProt P11229); assay: Alphascreen Surefire phospho-ERK1/2 functional assay, M1; conditions: for EC50: CHO cells stably expressing human M1, agonist 5 min, 37° C., read-out: pEC50 M1 (converted); for Emax: CHO, read-out: % Emax cf. ACh, M1
T2 sequence (P11229 1-460): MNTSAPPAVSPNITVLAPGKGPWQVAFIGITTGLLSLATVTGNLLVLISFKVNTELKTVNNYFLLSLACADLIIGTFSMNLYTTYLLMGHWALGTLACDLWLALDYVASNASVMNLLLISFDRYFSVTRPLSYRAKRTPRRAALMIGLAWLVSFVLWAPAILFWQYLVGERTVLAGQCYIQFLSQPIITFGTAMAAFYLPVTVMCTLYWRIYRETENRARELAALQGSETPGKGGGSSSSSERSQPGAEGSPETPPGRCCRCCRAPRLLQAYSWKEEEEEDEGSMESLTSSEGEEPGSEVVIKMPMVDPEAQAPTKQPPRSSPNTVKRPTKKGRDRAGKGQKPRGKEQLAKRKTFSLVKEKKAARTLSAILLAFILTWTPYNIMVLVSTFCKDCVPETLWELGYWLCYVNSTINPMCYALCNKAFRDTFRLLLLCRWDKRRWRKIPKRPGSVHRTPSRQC
Experimental: as §1, §2

[3] = target: T3, human muscarinic M2 receptor (Homo sapiens, UniProt P08172); assay: Alphascreen Surefire phospho-ERK1/2 functional assay, M2; conditions: for EC50: CHO cells stably expressing human M2, agonist 5 min, 37° C., read-out: pEC50 M2 (converted); for Emax: CHO, read-out: % Emax cf. ACh, M2
T3 sequence (P08172 1-466): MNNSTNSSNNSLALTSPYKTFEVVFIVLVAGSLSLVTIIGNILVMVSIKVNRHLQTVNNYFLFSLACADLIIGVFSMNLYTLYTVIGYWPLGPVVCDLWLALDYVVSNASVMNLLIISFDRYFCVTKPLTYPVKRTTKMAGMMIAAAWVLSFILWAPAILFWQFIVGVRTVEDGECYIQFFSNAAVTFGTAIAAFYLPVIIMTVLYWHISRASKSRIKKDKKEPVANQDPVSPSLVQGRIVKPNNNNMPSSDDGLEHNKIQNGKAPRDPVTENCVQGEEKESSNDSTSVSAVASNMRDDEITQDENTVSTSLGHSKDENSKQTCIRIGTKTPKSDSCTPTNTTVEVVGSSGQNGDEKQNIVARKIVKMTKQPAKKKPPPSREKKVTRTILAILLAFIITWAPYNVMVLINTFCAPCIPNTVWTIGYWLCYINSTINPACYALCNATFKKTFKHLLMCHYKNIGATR
Experimental: as §1, §2

[4] = target: T4, human muscarinic M3 receptor (Homo sapiens, UniProt P20309); assay: Alphascreen Surefire phospho-ERK1/2 functional assay, M3; conditions: for EC50: CHO cells stably expressing human M3, agonist 5 min, 37° C., read-out: pEC50 M3 (converted); for Emax: CHO, read-out: % Emax cf. ACh, M3
T4 construct: expressed in transfected cells
T4 sequence (P20309 whole entry): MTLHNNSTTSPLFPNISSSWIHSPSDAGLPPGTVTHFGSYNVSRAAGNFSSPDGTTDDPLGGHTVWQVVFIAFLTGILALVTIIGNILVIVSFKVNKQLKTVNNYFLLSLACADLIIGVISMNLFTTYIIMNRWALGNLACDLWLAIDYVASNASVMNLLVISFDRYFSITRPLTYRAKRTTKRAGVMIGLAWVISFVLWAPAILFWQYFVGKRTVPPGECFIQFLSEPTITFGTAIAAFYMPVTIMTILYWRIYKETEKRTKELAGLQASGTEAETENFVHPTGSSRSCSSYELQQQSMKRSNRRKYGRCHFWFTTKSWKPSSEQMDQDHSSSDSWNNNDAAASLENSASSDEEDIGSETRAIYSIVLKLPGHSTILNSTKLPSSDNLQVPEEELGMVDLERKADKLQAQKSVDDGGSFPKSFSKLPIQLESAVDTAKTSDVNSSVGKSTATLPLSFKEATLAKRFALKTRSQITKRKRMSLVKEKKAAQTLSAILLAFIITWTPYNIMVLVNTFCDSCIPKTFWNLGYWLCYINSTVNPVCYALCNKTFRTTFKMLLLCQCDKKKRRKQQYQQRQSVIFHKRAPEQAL
Experimental: as §1, §2

Structure (SMILES) | EC50 [1] [µM] | Emax [1] [%] | EC50 [2] [µM] | Emax [2] [%] | EC50 [3] [µM] | Emax [3] [%] | EC50 [4] [µM] | Emax [4] [%]
c1ccc2c(c1)CCCN2CCCN1C2CCC1CC(CCCOC1=NOCC1)C2 (centres unmarked) [Example 9, 3-(3-(8-(3-(3,4-dihydroquinolin-1(2H)-yl)propyl)-8-azabicyclo[3.2.1]octan-3-yl)propoxy)-4,5-dihydroisoxazole] | > 20 | 16 | 0.0251 | 40 | > 20 | 28 | > 20 | 21
O=C1CCc2ccccc2N1CCCN1[C@@H]2CC[C@H]1CN(CCCOC1=NOCC1)C2 [Example 6, 1-(3-((1R,5S)-3-(3-((4,5-dihydroisoxazol-3-yl)oxy)propyl)-3,8-diazabicyclo[3.2.1]octan-8-yl)propyl)-3,4-dihydroquinolin-2(1H)-one] | > 20 | 32 | < 0.000631 | 103 | > 0.2 | 6 | > 0.2 | 0
O=C1CCON1CCCC1C[C@@H]2CC[C@@H](C1)N2CCCN1C(=O)CCc2ccccc21 (stereo partly drawn) [Example 13, 2-(3-((1S,5S)-8-(3-(2-oxo-3,4-dihydroquinolin-1(2H)-yl)propyl)-8-azabicyclo[3.2.1]octan-3-yl)propyl)isoxazolidin-3-one] | > 20 | 12 | 0.1 | 62 | > 20 | 9 | > 20 | 8
O=C1CCc2ccccc2N1CCCN1C2CCC1CC(CCCOC1=NOCC1)C2 (centres unmarked) [Example 4, 1-(3-(3-(3-((4,5-dihydroisoxazol-3-yl)oxy)propyl)-8-azabicyclo[3.2.1]octan-8-yl)propyl)-3,4-dihydroquinolin-2(1H)-one] | > 20 | 11 | 0.00316 | 71 | > 20 | 29 | > 20 | 0
O=C1CCc2ccccc2N1CCCN1[C@@H]2CC[C@H]1C[C@@H](OCCOC1=NOCC1)C2 [Example 5, 1-(3-(3-(2-((4,5-dihydroisoxazol-3-yl)oxy)ethoxy)-8-azabicyclo[3.2.1]octan-8-yl)propyl)-3,4-dihydroquinolin-2(1H)-one] | > 20 | 19 | 0.00631 | 62 | > 20 | 16 | > 20 | 46
O=C1CCc2ccccc2N1CCCN1[C@@H]2CC[C@H]1CC(CCOC1=NOCC1)C2 (stereo partly drawn) [Example 3, 1-(3-((1R,5S)-3-(2-((4,5-dihydroisoxazol-3-yl)oxy)ethyl)-8-azabicyclo[3.2.1]octan-8-yl)propyl)-3,4-dihydroquinolin-2(1H)-one] | > 20 | 53 | 0.1 | 37 | – | – | – | –

The next lines start with results.

EC50 [1] [µM] | Emax [1] [%] | EC50 [2] [µM] | Emax [2] [%] | Structure (SMILES) | EC50 [3] [µM] | Emax [3] [%] | EC50 [4] [µM] | Emax [4] [%]
> 20 | 8 | 0.251 | 62 | O=C1COc2cc(F)ccc2N1CCCN1CCC(CCOC2=NOCC2)CC1 [Example 7, 4-(3-(4-(2-((4,5-dihydroisoxazol-3-yl)oxy)ethyl)piperidin-1-yl)propyl)-7-fluoro-2H-benzo[b][1,4]oxazin-3(4H)-one] | – | – | – | –
0.0251 | 25 | 0.01 | 102 | O=C1COc2cc(F)ccc2N1CCCN1CCC(CCCCOC2=NOCC2)CC1 [Example 8, 4-(3-(4-(4-((4,5-dihydroisoxazol-3-yl)oxy)butyl)piperidin-1-yl)propyl)-7-fluoro-2H-benzo[b][1,4]oxazin-3(4H)-one] | > 20 | 4 | > 20 | 3
> 20 | 13 | 0.794 | 73 | O=C1CCON1CCC1CCN(CCCN2C(=O)CCc3ccccc32)CC1 [Example 10, 2-(2-(1-(3-(2-oxo-3,4-dihydroquinolin-1(2H)-yl)propyl)piperidin-4-yl)ethyl)isoxazolidin-3-one] | – | – | – | –
> 20 | 10 | 0.01 | 92 | O=C1CCON1CCCCC1CCN(CCCN2C(=O)CCc3ccccc32)CC1 [Example 11, 2-(4-(1-(3-(2-oxo-3,4-dihydroquinolin-1(2H)-yl)propyl)piperidin-4-yl)butyl)isoxazolidin-3-one] | > 20 | 4 | > 20 | 7
> 20 | 10 | 0.00316 | 98 | O=C1CCc2ccccc2N1CCCN1CCC(CCCCOC2=NOCC2)CC1 [Example 2, 1-(3-(4-(4-((4,5-dihydroisoxazol-3-yl)oxy)butyl)piperidin-1-yl)propyl)-3,4-dihydroquinolin-2(1H)-one] | > 20 | 3 | > 20 | 7
> 20 | 5 | 0.02 | 41 | O=C1CCON1CCCCCC1CCN(CCCN2C(=O)CCc3ccccc32)CC1 [Example 12, 2-(5-(1-(3-(2-oxo-3,4-dihydroquinolin-1(2H)-yl)propyl)piperidin-4-yl)pentyl)isoxazolidin-3-one] | > 20 | 2 | > 20 | 1
> 20 | 19 | 0.0631 | 92 | O=C1CCc2ccccc2N1CCCN1CCC(CCOC2=NOCC2)CC1 [Example 1, 1-(3-(4-(2-((4,5-dihydroisoxazol-3-yl)oxy)ethyl)piperidin-1-yl)propyl)-3,4-dihydroquinolin-2(1H)-one] | > 20 | 1 | > 20 | 0

Source: patent publication US12215099B2, “Quinolinone and benzoxazine derivatives as muscarinic M1 and/or M4 receptor agonists” (Nxera Pharma UK Limited, priority 2018, dated 2025)
